For experiment [1], the system named is Plasmodium berghei. Put plainly: Antimalarial activity against Plasmodium berghei infected mice (Mus musculus) at 640 mg/kg; toxic in 5 of 5. It is filed as functional, organism-based. On the set-up: dose 640 mg/kg.
For experiment [2], the system named is Plasmodium berghei. As to the kind of experiment: Increased mean survival time in drug-sensitive Plasmodium berghei infected mice (Mus musculus) at 80 mg/kg; cures 3 of 5. On the set-up: dose 80 mg/kg. It is filed as functional, organism-based.
The test system of experiment [3] is Plasmodium berghei. As to the kind of experiment: Antimalarial activity against Plasmodium berghei infected mice (Mus musculus) at 320 mg/kg; toxic in 1 of 5. On the set-up: dose 320 mg/kg. The class given is functional, organism-based.
For experiment [4], the system named is Plasmodium berghei. As to the kind of experiment: Increased mean survival time in drug-sensitive Plasmodium berghei infected mice (Mus musculus) at 40 mg/kg; cured 1 of 5. It is filed as functional, organism-based. On the set-up: dose 40 mg/kg.
In experiment [5] the test system is Plasmodium berghei. As to the kind of experiment: Increased mean survival time in drug-sensitive Plasmodium berghei infected mice (Mus musculus) at 20 mg/kg dose. It is filed as functional.
Experiment [6] has as its system Plasmodium berghei. As to the kind of experiment: (§1) Increased mean survival time in drug-sensitive Plasmodium berghei infected mice (Mus musculus) at 160 mg/kg; cured 5 of 5. It is filed as functional.
The test system of experiment [7] is Plasmodium berghei. Put plainly: Increased mean survival time in drug-sensitive Plasmodium berghei infected mice (Mus musculus) at 320 mg/kg; cured 2 of 5. It is filed as functional, organism-based. More on the design: dose 320 mg/kg.
Experiment [8] concerns Plasmodium berghei. Put plainly: Antimalarial activity as increased MST in Plasmodium berghei infected mice (Mus musculus) at 40 mg/kg. It is filed as functional.
Experiment [9] has as its system Plasmodium berghei. Put plainly: Antimalarial activity as increased MSTin Plasmodium berghei infected mice (Mus musculus) at 640 mg/kg; Toxic in 3 of 5. It is filed as functional.
For experiment [10], the system named is Plasmodium berghei. As to the kind of experiment: Antimalarial activity as increased MST in Plasmodium berghei infected mice (Mus musculus) at 160 mg/kg. It is filed as functional.
The test system of experiment [11] is Plasmodium berghei. As to the kind of experiment: Antimalarial activity as increased MST in Plasmodium berghei infected mice (Mus musculus) at 40 mg/kg; Toxic in 1 of 5. The class given is functional.
The test system of experiment [12] is Plasmodium berghei. Put plainly: Antimalarial activity as increased MST in Plasmodium berghei infected mice (Mus musculus) at 20 mg/kg. It is filed as functional.
Experiment [13] concerns Plasmodium berghei. As to the kind of experiment: Antimalarial activity against Plasmodium berghei infected mice (Mus musculus) at 320 mg/kg; toxic in 5 of 5. On the set-up: dose 320 mg/kg. It is filed as functional, organism-based.
Experiment [14] deals with Plasmodium berghei. Put plainly: Increased mean survival time in drug-sensitive Plasmodium berghei infected mice (Mus musculus) at 20 mg/kg; cured 1 of 5. The class given is functional, organism-based. More on the design: dose 20 mg/kg.
For experiment [15], the system named is Plasmodium berghei. As to the kind of experiment: Increased mean survival time in drug-sensitive Plasmodium berghei infected mice (Mus musculus) at 640 mg/kg; toxic in 4 of 5. It is filed as functional.
Experiment [16] relates to Plasmodium berghei. Put plainly: Increased mean survival time in drug-sensitive Plasmodium berghei infected mice (Mus musculus) at 320 mg/kg dose. The class given is functional.
In experiment [17] the test system is Plasmodium berghei. The description is as §1. The class given is functional, organism-based. On the set-up: dose 160 mg/kg.
The subject of experiment [18] is Plasmodium berghei. As to the kind of experiment: Increased mean survival time in drug-sensitive Plasmodium berghei infected mice (Mus musculus) at 40 mg/kg; cured 3 of 5. It is filed as functional, organism-based. More on the design: dose 40 mg/kg.
The subject of experiment [19] is Plasmodium berghei. Put plainly: Increased mean survival time in drug-sensitive Plasmodium berghei infected mice (Mus musculus) at 80 mg/kg; cured 3 of 5. It is filed as functional, organism-based. On the set-up: dose 80 mg/kg.

As for `CC(N/N=C(\S)N1CCN(c2ccccn2)CC1)c1ccccn1` (stereo not given), the Survival time result in the experiment with Plasmodium berghei [1] was “Toxic in 5 of 5 mice”; in the experiment on Plasmodium berghei [2] it was “Cured 3 of 5 mice”; in the experiment with Plasmodium berghei [3], “Toxic in 1 of 5 mice”; with Plasmodium berghei [4] it was “Cured 1 of 5 mice”; in the experiment on Plasmodium berghei [5], 0.4 days; in the experiment with Plasmodium berghei [6], 5 days. Moreover, in the experiment on Plasmodium berghei [7], the Survival time result is listed as “Cured 2 of 5 mice”.
As for `CC(N/N=C(\S)NCc1ccccc1)c1ccccn1` (stereo not given), the Survival time was -0.1 days with Plasmodium berghei [8], 2.4 days in the experiment with Plasmodium berghei [9] and 0.7 days with Plasmodium berghei [10].
Consider `CC(N/N=C(\S)N(C)C)c1ccccn1` (stereo not given), for which the Survival time in the experiment with Plasmodium berghei [11] was 3.2 days; in the experiment with Plasmodium berghei [12] it was 2 days; in the experiment on Plasmodium berghei [1], “Toxic in 5 of 5 mice”; in the experiment with Plasmodium berghei [13], “Toxic in 5 of 5 mice”.
In the case of `C/C(=N\N=C(/S)N1CC2CCC(CC2)C1)c1ccccn1`, the Survival time entry in the experiment with Plasmodium berghei [14] is “Cured 1 of 5 mice”; in the experiment with Plasmodium berghei [15], 0.4 days; in the experiment on Plasmodium berghei [16], 0.2 days; in the experiment on Plasmodium berghei [17], “Cured 5 of 5 mice”; in the experiment on Plasmodium berghei [18], “Cured 3 of 5 mice”; in the experiment on Plasmodium berghei [19] it was “Cured 3 of 5 mice”.

The record behind these values is ChEMBL document CHEMBL1122447, “2-Acetylpyridine thiosemicarbazones. 5. 1-[1-(2-Pyridyl)ethyl]-3-thiosemicarbazides as potential antimalarial agents” (1983).
